Read-outs that look alike come from different tables or passages of the source.
Test system: HepG2 cells
Experiment: Cytotoxicity evaluation (CellTiter 96 MTS)
Format: cell-based, human
Conditions: read-out: IC50 HepG2
Protocol: Seven esters and their parent salicylanilides with the most robust antimicrobial activity were tested for cytotoxicity in the human hepatocellular liver carcinoma cell line HepG2 (passages 21–24; ECACC, Salisbury, UK) using a standard colorimetric method measuring a tetrazolium salt reduction (CellTiter(R) 96 AQueous One Solution Assay, Promega G3580, Madison, WI, USA).
The cells were routinely cultured in Minimum Essentials Eagle Medium (Sigma-Aldrich, Darmstadt, Germany) supplemented with 10% foetal bovine serum (PAA; Biotech, Prague, Czech Republic), 1% of L-glutamine solution (Sigma-Aldrich), and non-essential amino acids solution (Sigma-Aldrich) in a humidified atmosphere containing 5% CO2 at 37 °C. For subculturing, the cells were harvested after trypsin/EDTA (Sigma-Aldrich) treatment at 37 °C. The cells treated with the tested substances were used as experimental groups. Untreated HepG2 cells were used as control groups.
The cells were seeded in density 1 × 10^4 cells per well in a 96-well plate with microscopic control. Next day, the cells were treated with each of the tested substances. […] The most of the tested compounds were prepared in incubation concentrations of 0.01–20 µM in triplicates. 4-(Trifluoromethyl)benzoic acid was applied in the concentrations of 10–4,000 µM in triplicates. The following types of controls were included: determination of 100% viability and 0% viability (the cells treated by 10% DMSO), no cell control and vehiculum controls. These checking samples were prepared in triplicates.
The treated cells were incubated together with controls at 37 °C for 24 h in 5% CO2 atmosphere. After this time reagent from the kit CellTiter 96 AQueous One Solution Cell Proliferation Assay was added. The CellTiter 96 assay is based on the reduction of tetrazolium salt MTS [3-(4,5-dimethylthiazol-2-yl)-5-(3-carboxymethoxyphenyl)-2-(4-sulfophenyl)-2H-tetrazolium] to water-soluble formazan dye by metabolically active cells. The reduction of the reagent is attributed to availability of NADH or NADPH. The decline in levels of these metabolically important compounds in the cell causes that the production of formazan is reduced. The tested plate was incubated for 2 h at 37 °C and 5% CO2 and after this time, the absorbance was recorded at 490 nm using a 96-well plate reader (TECAN, Infinite M200, Grödig, Austria).
The results were expressed as inhibitory concentration which is necessary to inhibit cell viability to 50% from the maximal (control) viability (IC50). A standard toxicological parameter IC50 was calculated in each of the tested substances using GraphPad Prism software (version 5.02; GraphPad Software Inc., San Diego, CA, USA).

Compound | IC50 (24 h, cytotoxicity) [µM] | also measured
O=C(Nc1ccc(Cl)c(Cl)c1)c1ccc(Cl)cc1O [SAL-2] | 1.8 | –
O=C(Nc1cccc(Br)c1)c1cc(Cl)ccc1O [SAL-3] | 1.54 | –
O=C(Nc1ccc(Br)cc1)c1ccc(Cl)cc1O [SAL-4] | 1.98 | –
O=C(Nc1ccc(C(F)(F)F)cc1)c1cc(Cl)ccc1O [SAL-5, 5-chloro-2-hydroxy-N-[4-(trifluoromethyl)phenyl]benzamide] | – | IC50 (Homo sapiens, HepG2, 24 h, cytotoxicity): 0.36 µM
O=C(Nc1ccc(C(F)(F)F)cc1)c1ccc(Cl)cc1O [SAL-6] | 0.69 | –
O=C(Nc1ccc(C(F)(F)F)cc1)c1cc(Br)ccc1O [SAL-7, 5-Bromo-2-hydroxy-N-[4-(trifluoromethyl)phenyl]benzamide] | – | IC50 (Homo sapiens, HepG2, 24 h): 1.67 µM

From PMC6270420, “Antibacterial Activity of Salicylanilide 4-(Trifluoromethyl)benzoates” (Molecules, 2013)
